Experimental findings from article PMC9827864, “In Situ Inhibitor Synthesis and Screening by Fluorescence Polarization: An Efficient Approach for Accelerating Drug Discovery” (Angewandte Chemie (International Ed. in English), 2022) are described below.

Entries after “also recorded” stand apart in the source; their conditions may differ.

The nature of data set [1]: Plasma stability (rat). The data set is classed as in vitro ADME. As to conditions: 100 μM. The protocol: (§1) A structure of PHD2 in complex with Fe and a 2OG competing inhibitor (PDB ID: 4KBZ) was obtained from PDB website. The structure files of protein and compounds for docking were prepared using the Discovery Studio (DS) 2020 software. A water molecule HOH624, conserved in the active binding site of PHD2, was retained during the docking. Residues of PHD2 around the native ligand (radius = 10 Å) were defined as the binding sites for docking. Subsequently, the ligand was removed; the Fe (II) was retained during the docking. Compounds were docked into the binding sites using GOLD 5.1. Docking procedures were performed using the default setting with 100 genetic algorithm (GA) runs of ligands. […]
(§2) 17 was preincubated with microsomes from different species (0.5 mg/mL) at 1 μM for 5 min at 37 °C in 100 mM PBS buffer (pH 7.4). […] The samples were centrifuged at 5000 rpm f or 10 min; the supernatants were then analyzed by HPLC. […]
(§3) Representative compounds and Roxadustat were formulated in normal saline solution. […] Subsequently, these samples were analyzed for reticulocytes in the center for new drug safety evaluation and research of China Pharmaceutical University (ADVIA 2120 hematology system). […]
(§4) Plasma EPO was evaluated using the erythropoietin quantikine ELISA kit for mice (MEP00B). […]
(§5) in normal saline solution. […] Plasma was collected by centrifugation at 3000 rpm, these plasmas were detected by E PO […]

Data set [2] deals with ICR mice. The experiment in a line: Subacute oral toxicity assay. The data set is classed as in vivo. The protocol:
6. Subacute and acute oral toxicity assay
The experimental mice (SPF, ICR, male and female) were obtained from Nantong University (permit number: SCXK (Su) 2019-0001). All animal related experiments were conducted under China Pharmaceutical University guidelines (certification of using the housing facility for laboratory animals: SYXK (Su) 2018-0019) IACUC approved protocols in compliance with the guide for the care and use of laboratory animals (number: 202013705).
6.1 Subacute oral toxicity assay
ICR mice were divided into 8 groups (n = 6), including 15 mg·kg-1, 50 mg·kg-1, 100 mg·kg-1 and vehicle groups for males and females, respectively. […] The body weight of the mice was recorded. […]
Experimental mice were treated with 17 through oral administration once. Body weight and the heart, kidney, liver, spleen, and lung weight were recorded. Blood was collected, and the samples were analyzed by blood biochemistry assays (CRE, AST, ALT, BUN).
A solution of aldehyde B82 (60 μL, 0.5 M, DMSO-d6), 4-methoxyaniline (2 μL, 6.0 M, DMSO -d6), mesitylene (100 μL, 0.1 M, DMSO - d6), and acylhydrazide A3 (100 μL, 0.1 M, DMSO -d6) was added to a mixture of DMSO -d6 (188 μL) and FP buffer D 2O (50 μL), in a 5 mm NMR tube; following incubation at room temperature, the sample was evaluated by a Bruker AV-400 instrument. […]

A short description of data set [3]: Metabolic stability in mouse liver microsomes. The format is in vitro ADME. A general note: Microsomes from liver hold many membrane-bound enzymes, among them those of drug oxidation.
For data set [4], the system named is plasma EPO in C57BL/6J mice. Description: In vivo EPO increased assay (plasma EPO ELISA). Also noted: species or system mouse. As to conditions: C57BL/6J mice, 10, 20 and 50 mg kg−1 po, 4 hours. Here is the method: as §1, §2, §3, §4, §5

Take `O=C(N/N=C/c1cccc(O)c1Cl)c1cnc(-c2cccnn2)[nH]c1=O` [compound 17]: in data set [1], the plasma stability entry is reported as “stable in rat plasma”. Also, the “H&E staining of major organs” value in data set [2] (100 mg kg−1 oral, alternate days for two weeks) is recorded as “normal architecture comparable to the vehicle”. In addition, in data set [2] (oral, every other day for 14 days, 10 or 15, 50 and 100 mg kg−1), the “subacute oral toxicity findings (behavior, body weight, organ/body weight ratio, BUN, ALT, AST, CRE)” value was “no obvious abnormality; also recorded: did not exhibit any treatment-associated adverse effects”. Further, in data set [3] (after 50 min, 1 μM, 0.5 mg/mL), the “compound present (remaining) in liver microsomes” value is listed as above 80%. Further, in data set [3] (pH 7.4, read-out: t1/2 in liver microsomes), the half-life at 1 μM is above 1.67 h. Moreover, the “plasma EPO response” value in data set [4] is “dose‐dependent induction of EPO, similarly to Roxadustat”.
